Measurements: article PMC10202323, “4′-Deoxypyridoxine disrupts vitamin B6 homeostasis in Escherichia coli K12 through combined inhibition of cumulative B6 uptake and PLP-dependent enzyme activity” (Microbiology, 2023)

What was measured:
Format in all cases: biochemical
[1] = molecular target: T1, PdxH (Escherichia coli, UniProt P0AFI7); experiment: spectrophotometric PLP formation at […] nm; conditions: read-out: apparent inhibition constant
T1 construct: recombinant, purified to homogeneity as previously reported
T1 sequence (P0AFI7 2-218): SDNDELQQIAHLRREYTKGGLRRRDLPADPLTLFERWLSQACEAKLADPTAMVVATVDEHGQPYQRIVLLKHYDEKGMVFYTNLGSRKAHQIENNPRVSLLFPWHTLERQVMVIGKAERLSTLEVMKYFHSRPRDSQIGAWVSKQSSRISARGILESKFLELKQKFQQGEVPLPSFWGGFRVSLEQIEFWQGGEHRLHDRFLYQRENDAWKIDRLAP

[2] = molecular target: T2, GlyA (Escherichia coli, UniProt P0A825); experiment: spectrophotometric coupled SHMT assay; conditions: read-out: apparent inhibition constant
T2 construct: recombinant, purified to homogeneity as previously reported; apoenzyme reconstituted with PLP
T2 sequence (P0A825 1-417): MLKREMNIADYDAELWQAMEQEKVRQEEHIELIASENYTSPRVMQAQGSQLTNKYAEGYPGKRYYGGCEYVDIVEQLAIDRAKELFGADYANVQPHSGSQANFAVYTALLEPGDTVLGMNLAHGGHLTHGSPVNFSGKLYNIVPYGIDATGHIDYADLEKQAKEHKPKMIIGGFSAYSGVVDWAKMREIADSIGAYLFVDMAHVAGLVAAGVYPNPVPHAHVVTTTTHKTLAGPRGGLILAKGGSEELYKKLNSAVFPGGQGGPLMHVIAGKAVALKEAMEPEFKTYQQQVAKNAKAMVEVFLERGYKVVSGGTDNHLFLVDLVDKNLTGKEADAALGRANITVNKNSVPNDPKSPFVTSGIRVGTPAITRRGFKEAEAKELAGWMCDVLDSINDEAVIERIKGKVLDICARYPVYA

[3] = molecular target: T3, PdxK (Escherichia coli, UniProt P40191); experiment: spectrophotometric PLP formation at […] nm; conditions: read-out: inhibition constant
T3 construct: recombinant, purified to homogeneity as previously reported
T3 sequence (P40191 whole entry): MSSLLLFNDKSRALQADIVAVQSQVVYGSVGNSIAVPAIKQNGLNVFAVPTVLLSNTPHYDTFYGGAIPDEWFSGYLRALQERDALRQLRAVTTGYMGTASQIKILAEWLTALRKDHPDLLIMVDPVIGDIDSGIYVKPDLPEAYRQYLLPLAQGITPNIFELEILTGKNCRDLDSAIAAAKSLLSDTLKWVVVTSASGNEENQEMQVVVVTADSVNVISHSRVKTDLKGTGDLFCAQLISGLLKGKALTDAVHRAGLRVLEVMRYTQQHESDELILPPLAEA

Ki [1] | Ki [2] | Ki [3] | Compound
530 ± 30 µM | 50 ± 30 µM |  | Cc1ncc(COP(=O)(O)O)c(C)c1O [4dPNP]
 |  | 0.5 ± 0.6 µM | Cc1ncc(CO)c(C)c1O [4dPN]
